The values below come from ChEMBL document CHEMBL4339194 (J Med Chem, 2019).

The structures appear in SMILES notation. pIC50, pKi: −log10 of the molar value.

The target of one series is T1, Catenin beta-1 (Homo sapiens, UniProt P35222).
T1 sequence (P35222 whole entry): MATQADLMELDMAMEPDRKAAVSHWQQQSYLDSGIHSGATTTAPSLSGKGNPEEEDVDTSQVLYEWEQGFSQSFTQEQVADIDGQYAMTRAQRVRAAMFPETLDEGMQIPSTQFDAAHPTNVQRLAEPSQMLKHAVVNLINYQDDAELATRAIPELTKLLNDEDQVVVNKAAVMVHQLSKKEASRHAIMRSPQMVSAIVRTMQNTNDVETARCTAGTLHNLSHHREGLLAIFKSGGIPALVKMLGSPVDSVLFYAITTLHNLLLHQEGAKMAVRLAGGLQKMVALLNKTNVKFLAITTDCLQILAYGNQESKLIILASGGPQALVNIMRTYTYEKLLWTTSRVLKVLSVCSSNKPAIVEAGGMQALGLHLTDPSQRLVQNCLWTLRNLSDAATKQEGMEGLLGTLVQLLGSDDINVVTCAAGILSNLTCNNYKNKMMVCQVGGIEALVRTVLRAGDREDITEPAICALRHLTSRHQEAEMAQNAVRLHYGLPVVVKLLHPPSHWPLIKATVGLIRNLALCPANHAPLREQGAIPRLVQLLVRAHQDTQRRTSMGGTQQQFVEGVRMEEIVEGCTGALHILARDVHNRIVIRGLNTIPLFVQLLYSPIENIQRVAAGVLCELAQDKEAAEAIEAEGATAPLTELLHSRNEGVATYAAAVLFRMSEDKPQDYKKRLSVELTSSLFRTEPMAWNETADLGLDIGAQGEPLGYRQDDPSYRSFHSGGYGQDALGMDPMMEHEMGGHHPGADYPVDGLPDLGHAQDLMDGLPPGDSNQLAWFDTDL

The test system of a further series is MDA-MB-231. The experiment in a line: Cytotoxicity against human MDA-MB-231 cells assessed as reduction in cell viability measured after 72 hrs by MTS assay. The format is functional, cell-based. The conditions noted are these: MDA-MB-231, 72 h. For orientation: Tetrazolium assays rely on reduction of a dye to a coloured formazan, in cell work by metabolically active cells.

The subject of a further series is HCT-116. Kind of series: Cytotoxicity against human HCT116 cells assessed as reduction in cell viability measured after 72 hrs by MTS assay. The conditions noted are these: HCT-116, 72 h. Type of series: functional, cell-based.
The test system of a further series is A549. The experiment in a line: Cytotoxicity against human A549 cells assessed as reduction in cell viability measured after 72 hrs by MTS assay. Type of series: functional, cell-based. As to conditions: A549, 72 h.
The test system of another series is MDA-MB-468. The experiment in a line: Cytotoxicity against human MDA-MB-468 cells assessed as reduction in cell viability measured after 72 hrs by MTS assay. The format is functional, cell-based. The conditions noted are these: MDA-MB-468, 72 h.
The subject of a further series is BT-20. Kind of series: Cytotoxicity against human BT20 cells assessed as reduction in cell viability measured after 72 hrs by MTS assay. Type of series: functional, cell-based. As to conditions: BT-20, 72 h.
The subject of the next series is SW480. Kind of series: Cytotoxicity against human SW480 cells assessed as reduction in cell viability measured after 72 hrs by MTS assay. Type of series: functional, cell-based. As to conditions: SW480, 72 h.
Series [1] in a line: Drug uptake in human SW480 cells assessed as cell-bound level per million cells at 25 uM measured after 3 hrs by HPLC-MS analysis. Type of series: ADME, cell-based. As to conditions: sw480, 3 h.
Series [2] can be described thus: Prodrug conversion in human SW480 cells assessed as (S)-4-((S)-2-((S)-2-(5-Chloro-1H-indole-2-carboxamido)-3-(naphthalen-2-yl)propanamido)-3-(2H-tetrazol-5-yl)propanamido)-5-oxo-5-((4-(trifluoromethoxy)phenyl)amino)pentanoic Acid formation at 25 uM measured after 24 hrs by HPLC-MS analysis. The conditions noted are these: sw480, 24 h. The format is ADME, cell-based.

A word on the pIC50: it is −log10 of the IC50, conventionally taken in molar units. A word on the pKi: it is the Ki on a negative log10 scale, so that one unit is a factor of ten. As for `COC(=O)[C@H](CCC(=O)O)NC(=O)[C@H](CC(=O)O)NC(=O)[C@H](Cc1ccc2ccccc2c1)NC(=O)Cc1nc2ccc(Cl)cc2s1`, at Catenin beta-1, the pIC50 was 4.06 and the pKi is 4.66.
Take `COC(=O)[C@H](CCC(=O)O)NC(=O)[C@H](CC(=O)O)NC(=O)[C@H](Cc1ccc2ccccc2c1)NC(=O)Cc1nc2ccc(Cl)cc2o1`: on Catenin beta-1, the pIC50 was under 3.40 and the pKi is under 4.00.
For the compound `CCOC(=O)CC[C@H](NC(=O)[C@H](CC(=O)OCC)NC(=O)[C@H](Cc1ccc2ccccc2c1)NC(=O)c1cc2cc(OC)ccc2[nH]1)C(=O)OC`, the pIC50 is under 3.70 in the series with MDA-MB-231; under 3.70 in the series on HCT-116; under 3.70 in the series on A549; under 3.70 in the series with MDA-MB-468; under 3.70 in the series on BT-20; under 3.40 on Catenin beta-1. For the same compound, in the series with SW480, the pIC50 is under 3.70. The compound further had a pKi on Catenin beta-1 of under 4.00.
At Catenin beta-1, `COC(=O)[C@H](CCC(=O)O)NC(=O)[C@H](CC(=O)O)NC(=O)[C@H](Cc1ccc2ccccc2c1)NC(=O)c1cc2ccc(Cl)cc2[nH]1` showed a pIC50 of 4.22 and a pKi of 4.82.
Consider `NC(=O)CC[C@H](NC(=O)[C@H](Cc1nn[nH]n1)NC(=O)[C@H](Cc1ccc2ccccc2c1)NC(=O)c1cc2cc(Cl)ccc2[nH]1)C(=O)Nc1ccc(OC(F)(F)F)cc1`, for which the pIC50 is 4.53 with MDA-MB-231; 4.24 in the series with HCT-116; 4.32 in the series with A549; 4.57 with MDA-MB-468; 4.53 with BT-20; 4.61 in the series on SW480.
`COC(=O)[C@H](CCC(=O)O)NC(=O)[C@H](CC(=O)O)NC(=O)[C@H](Cc1ccc2ccccc2c1)NC(=O)c1cc2cc(OC)ccc2[nH]1`: on Catenin beta-1, the pIC50 is under 3.40 and the pKi was under 4.00.
In the same order, the values of `COC(=O)[C@H](CCC(=O)O)NC(=O)[C@H](CC(=O)O)NC(=O)[C@H](Cc1ccc2ccccc2c1)NC(=O)Cc1nc2cc(Cl)ccc2[nH]1` are under 3.40 and under 4.00.
As for `CCOC(=O)CC[C@H](NC(=O)[C@H](Cc1nn[nH]n1)NC(=O)[C@H](Cc1ccc2ccccc2c1)NC(=O)c1cc2cc(Cl)ccc2[nH]1)C(=O)Nc1ccc(OC(F)(F)F)cc1`, the pIC50 was 4.78 in the series on MDA-MB-231; 4.22 in the series on HCT-116; 4.17 in the series with A549; 4.97 in the series on MDA-MB-468; 4.75 with SW480. Further, the Drug uptake in [1] was 1.4 nmol/million cells. In addition, in [2], the Drug metabolism result was “Metabolite_Notdetected”.
In the case of `COC(=O)[C@H](CCC(=O)O)NC(=O)[C@H](CC(=O)O)NC(=O)[C@H](Cc1ccc2ccccc2c1)NC(=O)Cc1nc2cc(Cl)ccc2o1`, at Catenin beta-1, the pIC50 was under 3.40 and the pKi was under 4.00.
Turning to `COC(=O)[C@H](CCC(=O)O)NC(=O)[C@H](CC(=O)O)NC(=O)[C@H](Cc1ccc2ccccc2c1)NC(=O)Cc1nc2cc(Cl)ccc2s1`, on Catenin beta-1, the pIC50 was under 3.40 and the pKi is under 4.00.
Taken in the same sequence, the figures for `COC(=O)[C@H](CCC(=O)O)NC(=O)[C@H](CC(=O)O)NC(=O)[C@H](Cc1ccc2ccccc2c1)NC(=O)Cc1c[nH]c2cc(Cl)ccc12` were under 3.40 and under 4.00.
In the same order, the values of `COC(=O)[C@H](CCC(=O)O)NC(=O)[C@H](CC(=O)O)NC(=O)[C@H](Cc1ccc2ccccc2c1)NC(=O)c1cc2cc(C)ccc2[nH]1` are under 3.40 and under 4.00.
Taken in the same sequence, the figures for `COC(=O)[C@H](CCC(=O)O)NC(=O)[C@H](CC(=O)O)NC(=O)[C@H](Cc1ccc2ccccc2c1)NC(=O)Cc1c[nH]c2ccc(Cl)cc12` were under 3.40 and under 4.00.
